Format in all cases: in vivo
One experiment relates to Plutella xylostella. Kind of experiment: Insecticidal test on Plutella xylostella (cabbage leaves soaked). Conditions: 144 h, 500 ppm solution, 3rd-instar larvae, 6 days after, 25° C. On the procedure: Leaves of cabbage were soaked in the solutions for about 10 seconds. After the soaking, the leaves were dried in air and placed in dishes. In each dish, five 3rd-instar larvae of Plutella xylostella were released, and the dishes were covered with lids and placed in an incubator at 25° C. 6 Days after, dead insects in the dishes were counted, and the mortality was calculated by using the same equation as in Test Example 1. The test was carried out in duplicate.

A further experiment relates to Ctenocephalides felis. Kind of experiment: Test on the effect on Ctenocephalides felis (thin film in glass container). Conditions: 96 h, application dose 10 μg/cm^2, adults, 4 days after release, 25° C. The protocol:
350 μl of the solutions were applied to the bottoms and the side walls of glass containers with an inner wall surface area of 35 cm^2, and acetone was volatilized to prepare thin films of the compounds on the inner walls of the glass containers. Since the inner wall surface area of each glass container was 35 cm^2, the application dose was 10 μg/cm^2.
To each glass container, five adults (male and female) of Ctenocephalides felis were released, and the containers were covered with lids and placed in an incubator at 25° C. 4 Days after the release of the fleas, dead fleas were counted, and the mortality was calculated by using the same equation as in Test Example 1.

For the next experiment, the system named is Spodoptera litura. Briefly: Insecticidal test on Spodoptera litura (cabbage leaves soaked). The settings on record: 144 h, 500 ppm solution, 3rd-instar larvae, 6 days after, 25° C. On the procedure: Leaves of cabbage were soaked in the solutions for about 10 seconds. After the soaking, the leaves were dried in air and placed in dishes. In each dish, five 3rd-instar larvae of Spodoptera litura were released, and the dishes were covered with lids and placed in an incubator at 25° C. 6 Days after, dead insects in the dishes were counted, and the mortality was calculated by using the same equation as in Test Example 1. The test was carried out in duplicate.

A further experiment deals with Myzus persicae. Kind of experiment: Insecticidal test on Myzus persicae (cabbage leaf spray). Conditions: 144 h, 500 ppm solution sprayed (2.5 mg/cm^2), apterous adults on cabbage leaves, 6 days after, 25° C. On the procedure: Wet absorbent cotton was laid on glass dishes having an inner diameter of 3 cm, and covered with leaves of cabbage cut into circles of the same diameter, and 4 apterous adults of Myzus persicae were released. […] The solutions were sprayed from a rotary spray tower (2.5 mg/cm^2), and the dishes were covered with lids and placed in an incubator at 25° C. 6 Days after, dead insects were counted, and the mortality was calculated by using the same equation as in Test Example 1. The test was carried out in duplicate.

The test system of another experiment is Nilaparvata lugens. Kind of experiment: Insecticidal test on Nilaparvata lugens (rice sheaths soaked). The settings on record: 144 h, 500 ppm solution, 3rd-instar larvae, 6 days after, 25° C. On the procedure: Rice sheaths were soaked in the solutions for about 10 seconds. After the soaking, the rice sheaths were dried in air and put in test tubes. In each tube, five 3rd-instar larvae of Nilaparvata lugens were released, and the tubes were capped with sponge and placed in an incubator at 25° C. 6 Days after, dead insects in the test tubes were counted, and the mortality (%) (the number of dead insects÷the number of released insects×100) was calculated. The test was carried out in duplicate.

The mortality is the share of the test organisms that died. As to `CCS(=O)(=O)c1c(-c2nc3cc(C(F)(F)F)cnc3n2C)nc2ncc(C(F)(F)F)cn12` [1-1-054a, 2-[3-(ethylsulfonyl)-6-(trifluoromethyl)imidazo[1,2-a]pyrimidin-2-yl]-3-methyl-6-(trifluoromethyl)-3H-imidazo[4,5-b]pyridine], the mortality at 500 ppm in the experiment with Plutella xylostella was no less than 90%.
In the case of `CCSc1c(-n2cc3ncc(C(F)(F)F)cc3n2)nc2cc(C(F)(F)F)ccn12` [1-10-002b, 2-[3-(ethylthio)-7-(trifluoromethyl)imidazo[1,2-a]pyridin-2-yl]-6-(trifluoromethyl)-2H-pyrazolo[4,3-b]pyridine], the mortality at 500 ppm with Plutella xylostella, in the experiment with Spodoptera litura and with Myzus persicae was no less than 90% in each case. Also, the mortality at 10 µg/cm2 in the experiment on Ctenocephalides felis is no less than 50%.
As to `CCS(=O)(=O)c1c(-c2cn3cc(C(F)(F)F)ncc3n2)nc2ccc(C(F)(F)F)cn12` [1-6-002a, 2-[3-(ethylsulfonyl)-6-(trifluoromethyl)imidazo[1,2-a]pyridin-2-yl]-6-(trifluoromethyl)imidazo[1,2-a]pyrazine], the mortality at 500 ppm in the experiment on Plutella xylostella, with Spodoptera litura and in the experiment on Myzus persicae was no less than 90% throughout.
Turning to `CCS(=O)(=O)c1c(-c2cn3ccc(C(F)(F)F)cc3n2)nc2ccc(C(F)(F)F)cn12` [1-5-002a, 3-(ethylsulfonyl)-6,7′-bis(trifluoromethyl)-2,2′-biimidazo[1,2-a]pyridine], the mortality at 500 ppm in the experiment on Nilaparvata lugens, with Plutella xylostella, in the experiment with Spodoptera litura and with Myzus persicae was no less than 90% throughout. Also, the mortality at 10 µg/cm2 in the experiment with Ctenocephalides felis was no less than 50%.
With `CCS(=O)(=O)c1c(-c2nc3cc(S(=O)(=O)C(F)(F)F)ccc3o2)nc2ccc(C(F)(F)F)cn12` [1-2-001a, 2-[3-(ethylsulfonyl)-6-(trifluoromethyl)imidazo[1,2-a]pyridin-2-yl]-5-[(trifluoromethyl)sulfonyl]benz[d]oxazole], the mortality at 500 ppm in the experiment with Nilaparvata lugens, with Plutella xylostella, in the experiment on Spodoptera litura and with Myzus persicae was no less than 90% in each case. Moreover, the mortality at 10 µg/cm2 in the experiment on Ctenocephalides felis was no less than 50%.
Turning to `CCS(=O)(=O)c1c(-c2nc3cc(C(F)(F)F)cnc3n2C)nc2sc(C(F)(F)F)cn12` [2-1-001a, 5-(ethylsulfonyl)-6-[3-methyl-6-(trifluoromethyl)-3H-imidazo[4,5-b]pyridin-2-yl]-2-(trifluoromethyl)imidazo[2,1-b]thiazole], the mortality at 500 ppm with Nilaparvata lugens, in the experiment with Plutella xylostella, with Spodoptera litura and in the experiment with Myzus persicae was no less than 90% each time. Also, the mortality at 10 µg/cm2 with Ctenocephalides felis was no less than 50%.
On to `CCS(=O)(=O)c1c(-c2nc3cc(C(F)(F)F)cnc3s2)nc2cc(C(F)(F)F)ccn12` [1-13-001a, 2-[3-(ethylsulfonyl)-7-(trifluoromethyl)imidazo[1,2-a]pyridin-2-yl]-6-(trifluoromethyl)thiazolo[5,4-b]pyridine], for which the mortality at 500 ppm in the experiment with Plutella xylostella and with Spodoptera litura was no less than 90% throughout.
With `CCSc1c(-c2nc3cnc(C(F)(F)F)cc3n2C)nc2cc(Cl)ccn12` [1-9-003b, 2-[7-chloro-3-(ethylthio)imidazo[1,2-a]pyridin-2-yl]-1-methyl-6-(trifluoromethyl)-1H-imidazo[4,5-c]pyridine], in the experiment on Plutella xylostella, the mortality at 500 ppm was no less than 90%. Moreover, the mortality at 10 µg/cm2 in the experiment with Ctenocephalides felis was no less than 50%.
In the experiment with Ctenocephalides felis, `CCS(=O)(=O)c1c(-c2nc3cc(C(F)(F)C(F)(F)F)ncn3c2Br)nc2ccc(C(F)(F)F)cn12` [1-3-010a, 3-bromo-2-[3-(ethylsulfonyl)-6-(trifluoromethyl)imidazo[1,2-a]pyridin-2-yl]-7-(perfluoroethyl)imidazo[1,2-c]pyrimidine] showed a mortality at 10 µg/cm2 of no less than 50%. The mortality at 500 ppm with Spodoptera litura and with Myzus persicae was no less than 90% throughout.
For the compound `CCSc1c(-c2nc3cc(C(F)(F)F)cnc3n2C)nc2sc(C(F)(F)F)cn12` [2-1-001b, 5-(ethylthio)-6-[3-methyl-6-(trifluoromethyl)-3H-imidazo[4,5-b]pyridin-2-yl]-2-(trifluoromethyl)imidazo[2,1-b]thiazole], the mortality at 500 ppm with Plutella xylostella and with Spodoptera litura was no less than 90% in each case.
As for `CCSc1c(-c2nc3ccc(C(F)(F)F)nc3n2C)nc2cc(C(F)(F)F)ccn12` [1-1-030b, 2-[3-(ethylthio)-7-(trifluoromethyl)imidazo[1,2-a]pyridin-2-yl]-3-methyl-5-(trifluoromethyl)-3H-imidazo[4,5-b]pyridine], the mortality at 500 ppm in the experiment with Plutella xylostella and with Spodoptera litura was no less than 90% each time.
For the compound `CCSc1c(-c2nc3cc(C(F)(F)F)nc(C)c3n2C)nc2ccc(C(F)(F)F)cn12` [1-8-003b, 2-[3-(ethylthio)-6-(trifluoromethyl)imidazo[1,2-a]pyridin-2-yl]-3,4-dimethyl-6-(trifluoromethyl)-3H-imidazo[4,5-c]pyridine], the mortality at 500 ppm in the experiment on Plutella xylostella and in the experiment with Spodoptera litura was no less than 90% each time.
For the compound `CCSc1c(-c2nc3cc(C(F)(F)F)cnc3n2C)nc2c(C(F)(F)F)cc(I)cn12` [1-1-066b, 2-[3-(ethylthio)-6-iodo-8-(trifluoromethyl)imidazo[1,2-a]pyridin-2-yl]-3-methyl-6-(trifluoromethyl)-3H-imidazo[4,5-b]pyridine], in the experiment with Ctenocephalides felis, the mortality at 10 µg/cm2 was no less than 50%.
For the compound `CCS(=O)(=O)c1c(-c2nc3cc(SC(F)(F)F)cnc3n2C)nc2cc(C(F)(F)F)ccn12` [1-1-027a, 2-[3-(ethylsulfonyl)-7-(trifluoromethyl)imidazo[1,2-a]pyridin-2-yl]-3-methyl-6-((trifluoromethyl)thio)-3H-imidazo[4,5-b]pyridine], the mortality at 500 ppm with Plutella xylostella, with Spodoptera litura and in the experiment on Myzus persicae was no less than 90% throughout. This compound also registered a mortality at 10 µg/cm2 in the experiment with Ctenocephalides felis of no less than 50%.
Turning to `CCS(=O)(=O)c1c(-c2cn3cc(C(F)(F)F)sc3n2)nc2ccc(C(F)(F)F)cn12` [1-12-001a, 6-[3-(ethylsulfonyl)-6-(trifluoromethyl)imidazo[1,2-a]pyridin-2-yl]-2-(trifluoromethyl)imidazo[2,1-b]thiazole], the mortality at 500 ppm with Plutella xylostella, in the experiment with Spodoptera litura and in the experiment on Myzus persicae was no less than 90% in each case. For the same compound, the mortality at 10 µg/cm2 in the experiment with Ctenocephalides felis was no less than 50%.
As for `CCSc1c(-c2nc3cc(C(F)(F)F)cnc3n2C)nc2cc(C(F)(F)F)c(Br)cn12` [1-1-023b, 2-[6-bromo-3-(ethylthio)-7-(trifluoromethyl)imidazo[1,2-a]pyridin-2-yl]-3-methyl-6-(trifluoromethyl)-3H-imidazo[4,5-b]pyridine], the mortality at 500 ppm in the experiment on Plutella xylostella and in the experiment with Spodoptera litura was no less than 90% in each case. Moreover, the mortality at 10 µg/cm2 in the experiment on Ctenocephalides felis was no less than 50%.
On to `CCS(=O)(=O)c1c(-c2cn3cnc(C(F)(F)C(F)(F)F)cc3n2)nc2ccc(C(F)(F)F)cn12` [1-3-008a, 2-[3-(ethylsulfonyl)-6-(trifluoromethyl)imidazo[1,2-a]pyridin-2-yl]-7-(perfluoroethyl)imidazo[1,2-c]pyrimidine], for which the mortality at 500 ppm in the experiment on Plutella xylostella and with Spodoptera litura was no less than 90% each time. For the same compound, the mortality at 10 µg/cm2 in the experiment on Ctenocephalides felis was no less than 50%.
As for `CCSc1c(-n2cc3cnc(C(F)(F)F)cc3n2)nc2cc(C(F)(F)F)ccn12` [1-11-001b, 2-[3-(ethylthio)-7-(trifluoromethyl)imidazo[1,2-a]pyridin-2-yl]-6-(trifluoromethyl)-2H-pyrazolo[4,3-c]pyridine], the mortality at 500 ppm with Nilaparvata lugens, in the experiment on Plutella xylostella, in the experiment on Spodoptera litura and in the experiment on Myzus persicae was no less than 90% in each case. Besides, in the experiment on Ctenocephalides felis, the mortality at 10 µg/cm2 was no less than 50%.
`CCSc1c(-c2nc3cc(C(F)(F)F)ncc3n2C)nc2cc(C(F)(F)F)ccn12` [1-8-005b, 2-[3-(ethylthio)-7-(trifluoromethyl)imidazo[1,2-a]pyridin-2-yl]-3-methyl-6-(trifluoromethyl)-3H-imidazo[4,5-c]pyridine]: the mortality at 500 ppm with Spodoptera litura is no less than 90%.
In the case of `CCS(=O)(=O)c1c(-c2nc3cc(C(F)(F)F)cnc3n2C)nc2cc(C(F)(F)F)c(Br)cn12` [1-1-023a, 2-[6-bromo-3-(ethylsulfonyl)-7-(trifluoromethyl)imidazo[1,2-a]pyridin-2-yl]-3-methyl-6-(trifluoromethyl)-3H-imidazo[4,5-b]pyridine], the mortality at 500 ppm in the experiment on Nilaparvata lugens, in the experiment on Plutella xylostella, with Spodoptera litura and in the experiment on Myzus persicae was no less than 90% in each case. Moreover, in the experiment with Ctenocephalides felis, the mortality at 10 µg/cm2 is no less than 50%.

For the origin of these results see patent publication US10882869B2, “Condensed heterocyclic compounds and pesticides” (NISSAN CHEMICAL CORPORATION, priority 2015, dated 2021).
